The values that follow come from article PMC8640678 (Journal of Pesticide Science, 2021).

Assay [1] deals with HcbA3C-His. The experiment in a line: NADH oxidation at […] nm, steady-state fit. The assay is classed as biochemical, Nocardioides sp. PD653. As to conditions: 1–8 µM FMN, 10–120 µM NADH, 25 nM enzyme; ping-pong; cited from earlier work.
The target in assay [2] is HcbA3C-His. The experiment in a line: spectrofluorometric titration. The class given is binding, Nocardioides sp. PD653. To be noted: oxidized FMN; no NADH stated; cited from earlier work.
The target of a further assay is T1, HcbB3 with HcbB2 (Nocardioides sp. PD653, UniProt A0A1V1W0L1).
T1 sequence (A0A1V1W0L1 1-506): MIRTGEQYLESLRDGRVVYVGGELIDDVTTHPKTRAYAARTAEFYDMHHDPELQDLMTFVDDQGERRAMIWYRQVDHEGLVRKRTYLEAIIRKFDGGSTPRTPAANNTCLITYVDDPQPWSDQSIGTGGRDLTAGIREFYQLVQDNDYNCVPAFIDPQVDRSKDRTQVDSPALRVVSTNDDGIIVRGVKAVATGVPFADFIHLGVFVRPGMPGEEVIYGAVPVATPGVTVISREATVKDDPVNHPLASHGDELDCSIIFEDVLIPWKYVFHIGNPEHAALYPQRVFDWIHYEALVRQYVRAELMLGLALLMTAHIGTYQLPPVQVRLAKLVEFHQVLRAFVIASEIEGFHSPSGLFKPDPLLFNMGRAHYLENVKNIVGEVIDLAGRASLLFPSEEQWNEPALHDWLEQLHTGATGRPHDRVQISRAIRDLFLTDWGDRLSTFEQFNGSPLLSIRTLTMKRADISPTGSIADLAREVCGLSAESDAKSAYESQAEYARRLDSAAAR
The experiment in a line: PCP dissipation by recombinant E. coli cells. To be noted: co-expressed HcbB2; whole cells. The class given is cell-based.

Turning to `Cc1cc2nc3c(=O)[nH]c(=O)nc-3n(C[C@H](O)[C@H](O)[C@H](O)COP(=O)(O)O)c2cc1C` [FMN], the Km (in general, the substrate concentration at which the rate is half of its maximum) in the assay with HcbA3C-His [1] is 4.43 ± 0.69 µM. In addition, the dissociation constant Kd (usually the free concentration of one partner at which half of the binding sites on the other are occupied at equilibrium, for simple one-to-one binding) on HcbA3C-His [2] was 0.75 ± 0.17 µM.

Consider `NC(=O)C1=CN([C@@H]2O[C@H](COP(=O)(O)OP(=O)(O)OC[C@H]3O[C@@H](n4cnc5c(N)ncnc54)[C@H](O)[C@@H]3O)[C@@H](O)[C@H]2O)C=CC1` [NADH], for which the Km in the assay with HcbA3C-His [1] is 51.7 ± 11.6 µM. Regarding `Oc1c(Cl)c(Cl)c(Cl)c(Cl)c1Cl` [PCP], on HcbB3 with HcbB2, the “PCP dissipation by recombinant E. coli cells” value was “co-expression of hcbB1 and hcbB3 or hcbB2 and hcbB3 led to significant PCP dissipation activity”.
